Patent publication US6974797B2, “Cross-linked glycopeptide-cephalosporin antibiotics” (Theravance, Inc., priority 2001, dated 2005)
In brackets after ≈: the same amount, converted by molar mass.

What was measured:
[1] = tested on: MRSA 33591; assay: In vivo efficacy in neutropenic mice (thigh infection); parameters: species or system Staphylococcus aureus; conditions: neutropenic male CD-1 mice, MRSA 33591 thigh infection, iv, 24 hours post-treatment
Experimental: Animals (male CD-1 mice, 20-30 g) were acquired from Charles Rivers Laboratories (Gilroy, Calif.) and allowed access to food and water ad libitum. Neutropenia was induced via 200 mg/kg intraperitoneal (IP) injection of cyclophosphamide given four and two days prior to the inoculation of bacteria.
The organism used was either a susceptible or resistant strain of clinically relevant gram positive pathogens, such as methicillin-susceptible Staphylococcus aureus (MSSA 13709) and methicillin-resistant Staphylococcus aureus (MRSA 33591). The bacterial inoculum concentration was ˜10^6 CFU/mL. Animals were lightly anesthetized with isoflurane and […] of the bacterial inoculum was injected into the anterior thigh. One hour after the inoculation, animals were dosed intravenously with vehicle or the appropriate dose of the test compound. At 0 hours and 24 hours post-treatment, the animals were euthanized (CO2 asphyxiation) and the anterior and posterior thigh collected aseptically. The thigh was placed into 10 mL sterile saline and homogenized. Dilutions of the homogenate were plated onto triptic soy agar plates which were incubated overnight. The number of bacterial colonies on a given plate was multiplied by the dilution factor, divided by the thigh weight (in grams) and expressed as log CFU/g. […]

[2] = tested on: Methicillin-resistant S. aureus (MRSA); assay: Minimal inhibitory concentration (MIC90), broth microdilution, MRSA strains; assay type: cell-based, Staphylococcus aureus
Experimental: (§1) Minimal inhibitory concentration (MICs) assays were performed using the broth microdilution method set forth in NCCLS guidelines (see, NCCLS. 2000. Methods for Dilution Antimicrobial Susceptibility Tests for Bacteria That Grow Aerobically; Approved Standard—Fifth Ed., Vol. 20, No. 2). Bacterial strains were obtained from the American Type Tissue Culture Collection (ATCC), Stanford University Hospital (SU), Kaiser Permanente Regional Laboratory in Berkeley (KPB), Massachusetts General Hospital (MGH), the Centers for Disease Control (CDC), the San Francisco Veterans' Administration Hospital (SFVA) or the University of California San Francisco Hospital (UCSF). Vancomycin-resistant enterococci were phenotyped as Van A or Van B based on their sensitivity to teicoplanin. Some vancomycin-resistant enterococci that had been genotyped as Van A, Van B, Van C1 or Van C2 were also obtained from the Mayo Clinic.
(§2) In this assay, cryopreserved bacterial cultures of reference and clinical strains were streaked for isolation on appropriate agar medium (i.e., Trypticase Soy Agar, Trypticase Soy Agar with defibrinated sheep erthrocytes, Brain Heart Infusion Agar, Chocolate Agar). Following incubation to allow formation of colonies, these plates were sealed with parafilm and stored refrigerated for up to two weeks. […] The MIC was read visually as the lowest concentration well with no bacterial growth. […]

[3] = tested on: Methicillin-resistant S. epidermitis (MRSE) and other coagulase-negative staphylococci; assay: Minimal inhibitory concentration (MIC90), broth microdilution, MRSE and other coagulase-negative staphylococci; assay type: cell-based, Staphylococcus epidermidis
Experimental: as §1, §2

[4] = tested on: MRSA 33591; assay: Time-kill assay, MRSA 33591; assay type: cell-based, Staphylococcus aureus
Experimental: (§3) This time-kill assay is a method for measuring the rate of bactericidal activity of a test compound. […] A rapid time-kill is desirable to quickly prevent bacterial colonization and reduce host tissue damage.
(§4) Bacteria were diluted in prewarmed media in shake flasks and incubated with shaking (200 rpm, 35° C.). At 0, 1, 4, and 24 hours samples were withdrawn from the flasks and bacteria were enumerated by plate counting. Subsequent to the initial sampling, a compound to be assayed was added to the shake flask culture. Plate counts at these intervals previous to and following addition of the compound were expressed graphically in a time-kill curve.

[5] = tested on: MSSA 13709; assay: Time-kill assay, MSSA 13709; assay type: cell-based, Staphylococcus aureus
Experimental: as §3, §4

[6] = tested on: methicillin-resistant S. aureus strains; assay: Minimal inhibitory concentration (MIC), broth microdilution, individual MRSA strains; assay type: cell-based, Staphylococcus aureus
Experimental: as §1
In this assay, cryopreserved bacterial cultures of reference and clinical strains were streaked for isolation on appropriate agar medium (i.e., Trypticase Soy Agar, Trypticase Soy Agar with defibrinated sheep erthrocytes, Brain Heart Infusion Agar, Chocolate Agar). Following incubation to allow formation of colonies, these plates were sealed with parafilm and stored refrigerated for up to two weeks. For preparation of assay inocula and to ensure low variability, several colonies from a bacterial isolate cultured on the agar plates were pricked with an inoculating loop and aseptically transferred to Mueller-Hinton Broth (supplemented with divalent cations to required levels based on manufacturer's certification). The broth culture was grown overnight at 35° C., diluted in fresh prewarmed broth and grown to log phase; this is equivalent to a 0.5 MacFarland standard or 1×10^8 colony forming units per milliliter (CFU/mL). Not all cell suspensions, due to species variability, contained 1×10^8 CFU/mL when turbidity is equivalent to the MacFarland standard, therefore acceptable adjustments (based on NCCLS guidelines) were made in dilutions of different bacterial strains. […] The plates were then incubated 18-24 hours at 35° C. The MIC was read visually as the lowest concentration well with no bacterial growth. Bacterial growth is defined as more than three pinpoint colonies, a button of precipitated cells larger than 2 mm in diameter, or obvious turbidity.
Strains routinely tested in the initial screen included methicillin-sensitive Staphylococcus aureus (MSSA), methicillin-resistant Staphylococcus aureus (MRSA), Staphylococcus aureus producing penicillinase, methicillin-sensistive Staphylococcus epidermidis (MSSE), methicillin-resistant Staphylococcus epidermidis (MRSE), vancomycin-sensitive Enterococcus faecium (EFMVS), vancomycin-sensitive Enterococcus faecalis (EFSVS), vancomycin-resistant Enterococcus faecium also resistant to teicoplanin (EFMVR Van A), vancomycin-resistant Enterococcus faecium sensistive to teicoplanin (EFMVR Van B), vancomycin-resistant Enterococcus faecalis also resistant to teicoplanin (EFSVR Van A), vancomycin-resistant Enterococcus faecalis sensitive to teicoplanin (EFSVR Van B), penicillin-sensitive Streptococcus pneumoniae (PSSP) and penicillin-resistant Streptococcus pneumoniae (PSRP). Because of the inability of PSSP and PSRP to grow well in Mueller-Hinton broth, MICs with those strains were determined using either TS broth supplemented with defibrinated blood or Haemophilus test medium.

[7] = 5 wt. % dextrose buffer solution, titrated to pH 3, duplicate sample preparations
Experimental: The aqueous solubility of a compound of this invention was determined using the following procedure. A 5 wt. % dextrose buffer solution at pH 2.2 was prepared by adding 1 mL of 1 N hydrochloric acid (Aldrich) to 99 mL of a 5 wt. % aqueous dextrose solution (Baxter).
A 1 mg/mL stock solution for calibration standards was then prepared by dissolving 1 mg of the test compound in 1 mL of DMSO. This solution was vortexed for 30 seconds and then sonicated for 10 minutes. The stock solution was then diluted with water to prepare calibration standards having the following concentrations: 50, 125, 250, 375 and 500 ug/mL.
Each test compound (30 mg) was weighed into a Millipore non-sterile, Ultrafree-MC 0.1 um filter unit (Millipore UFC30VVOO) and a magnetic stir bar was added to each unit. The 5 wt. % dextrose buffer solution (750 uL) was then added to each unit and these mixtures were vortexed for 5 minutes. The filter units were then placed in an Eppendorf tube rack and the tube rack was placed on top of a magnetic stirrer. […]
The calibration standards and the test samples were analyzed by reverse-phase HPLC using the following conditions:
The solubility of each test sample was calculated by comparing the peak area of the test sample to the calibration curve and multiplying by the dilution factor.

CN[C@H](CC(C)C)C(=O)N[C@H]1C(=O)N[C@@H](CC(N)=O)C(=O)N[C@H]2C(=O)N[C@H]3C(=O)N[C@H](C(=O)N[C@H](C(=O)O)c4cc(O)cc(O)c4-c4cc3ccc4O)[C@H](O)c3ccc(c(Cl)c3)Oc3cc2cc(c3O[C@@H]2O[C@H](CO)[C@@H](O)[C@H](O)[C@H]2O[C@H]2C[C@](C)(N)[C@H](O)[C@H](C)O2)Oc2ccc(cc2Cl)[C@H]1O [Vancomycin, vancomycin, reference compound]
ED50 ([1]; Staphylococcus aureus, read-out: ED50 (dose required to produce 50% of the maximum reduction in thigh titre)): 9 mg/kg | MIC90 ([2]; Staphylococcus aureus, read-out: MIC90 (minimum inhibitory concentration for 90% of strains tested)): 3 µg/mL (≈ 2.07 µM) | MIC90 ([3]; Staphylococcus epidermidis, MRSE, read-out: MIC90 (minimum inhibitory concentration for 90% of strains tested)): 4 µg/mL (≈ 2.76 µM) | bactericidal concentration (≧3 log decrease in bacterial cell numbers) ([4]; MRSA 33591, in 24 hours): 4 μg/mL | bactericidal concentration (≧3 log decrease in bacterial cell numbers) ([5]; MSSA 13709, in 24 hours): 4 μg/mL

CNC(CC(C)C)C(=O)NC1C(=O)NC(CC(N)=O)C(=O)NC2C(=O)NC3C(=O)NC(C(=O)NC(C(=O)NCCCON=C(C(=O)NC4C(=O)N5C(C(=O)[O-])=C(C[n+]6ccccc6)CSC45)c4csc(N)n4)c4cc(O)cc(O)c4-c4cc3ccc4O)C(O)c3ccc(c(Cl)c3)Oc3cc2cc(c3OC2OC(CO)C(O)C(O)C2OC2CC(C)(N)C(O)C(C)O2)Oc2ccc(cc2Cl)C1O (centres unmarked) [Compound 34, reference compound]
MIC ([6]; MRSA 33591): 0.17 µg/mL (≈ 0.0872 µM) | MIC ([6]; MRSA MED-84): 0.29 µg/mL (≈ 0.149 µM) | MIC ([6]; MRSA MED-85): 0.32 µg/mL (≈ 0.164 µM) | MIC ([6]; MRSA MED-86): 0.29 µg/mL (≈ 0.149 µM) | MIC ([6]; MRSA MED-87): 0.49 µg/mL (≈ 0.251 µM) | MIC ([6]; MRSA MED-88): 0.34 µg/mL (≈ 0.174 µM) | MIC ([6]; MRSA MED-89): 0.18 µg/mL (≈ 0.0924 µM) | MIC ([6]; MRSA MED-103): 0.20 µg/mL (≈ 0.103 µM) | MIC ([6]; MRSA MED-104): 0.58 µg/mL (≈ 0.298 µM) | MIC ([6]; MRSA MED-107): 0.34 µg/mL (≈ 0.174 µM) | MIC ([6]; MRSA MED-110): 0.49 µg/mL (≈ 0.251 µM) | MIC ([6]; MRSA MED-572): <0.1 µg/mL

CNC(CC(C)C)C(=O)NC1C(=O)NC(CC(N)=O)C(=O)NC2C(=O)NC3C(=O)NC(C(=O)NC(C(=O)NCCCON=C(C(=O)NC4C(=O)N5C(C(=O)[O-])=C(C[n+]6ccccc6)CSC45)c4nc(N)sc4Cl)c4cc(O)cc(O)c4-c4cc3ccc4O)C(O)c3ccc(c(Cl)c3)Oc3cc2cc(c3OC2OC(CO)C(O)C(O)C2OC2CC(C)(N)C(O)C(C)O2)Oc2ccc(cc2Cl)C1O.Cl.Cl.Cl (centres unmarked) [Compound 1]
aqueous solubility [7]: > 47.9 mg/mL | ED50 (dose required to produce 50% of the maximum reduction in thigh titre) [1]: < 0.20 mg/kg | MIC90 (minimum inhibitory concentration for 90% of strains tested) ([2]; n = 53 strains): <0.1 µg/mL | MIC90 (minimum inhibitory concentration for 90% of strains tested) ([3]; MRSE and other coagulase-negative staphylococci, n = 34 strains): <0.1 µg/mL | bactericidal concentration (≧3 log decrease in bacterial cell numbers) ([4]; MRSA 33591, in 4 hours): ≤ 1 μg/mL | bactericidal concentration (≧3 log decrease in bacterial cell numbers) ([5]; MSSA 13709, in 4 hours): ≤ 1 μg/mL | MIC ([6]; MRSA 33591): ≦0.1 μg/mL | MIC ([6]; MRSA MED-84): ≦0.1 μg/mL | MIC ([6]; MRSA MED-85): ≦0.1 μg/mL | MIC ([6]; MRSA MED-86): ≦0.1 μg/mL | MIC ([6]; MRSA MED-87): ≦0.1 μg/mL | MIC ([6]; MRSA MED-88): ≦0.1 μg/mL | MIC ([6]; MRSA MED-89): ≦0.1 μg/mL | MIC ([6]; MRSA MED-103): ≦0.1 μg/mL | MIC ([6]; MRSA MED-104): 0.10 µg/mL | MIC ([6]; MRSA MED-107): ≦0.1 μg/mL | MIC ([6]; MRSA MED-110): 0.20 µg/mL | MIC ([6]; MRSA MED-572): ≦0.1 μg/mL
